Source: PMC3021692, “Synthesis and Pharmacological Evaluation of Novel Schiff Base Analogues of 3-(4-amino) Phenylimino) 5-fluoroindolin-2-one” (Journal of Young Pharmacists : JYP, 2010)

Key:
Type in all cases: in vivo
[1] = system: Albino rats of Wistar strain; assay: Evaluation of ulcerogenicity index (pylorus ligation); set-up: scale not given here; conditions: mean ± SD (n = 6)
Protocol: The synthesized compounds were evaluated for analgesic, anti-inflammatory, and ulcerogenic index. […] The test compounds and the standard drugs were administered in the form of a suspension (1% carboxymethyl cellulose as a vehicle) by oral route for analgesic and anti-inflammatory but for ulcerogenicity studies by intraperitoneally as suspension in 10% v/v Tween-20. Each group consisted of six animals. The animals were procured from the C. L. Baid Metha College of pharmacy, Chennai, and were maintained in colony cages at 25 ±2°C, relative humidity of 45-55%, under a 12-h light and dark cycle; they were fed standard animal feed. All the animals were acclimatized for a week before use. The Institutional Animal Ethics Committee approved the protocol adopted for the experimentation of animals. Ulceration in rats was induced as described by Goyal et al. Albino rats of Wistar strain weighing 150-200 g of either sex were divided into various groups each of six animals.[16] Control group of animals was administered only with 10% v/v Tween 80 suspension intraperitonially. One group was administered with aspirin (German Remedies) intraperitoneally at a dose of 200 mg/kg once daily for 3 days. The remaining group of animals was administered with test compounds intraperitoneally at a dose of 20 mg/kg. On fourth day, Pylorus was ligated as per the method of Shay et al.[17] Animals were fasted for 36 h before the pylorus ligation procedure. Four hours after the ligation, animals were sacrificed. The stomach was removed and opened along with the greater curvature. Ulcer index was determined by the method of Ganguly and Bhatnagar.[18]

[2] = system: carrageenan-induced paw edema in rats; assay: Anti-inflammatory activity, carrageenan-induced paw edema test; conditions: for Percent anti-inflammatory activity (percent inhibition of paw edema): mean ± SD (n = 6); for Anti-inflammatory activity compared to reference standard diclofenac sodium (in words): carrageenan-induced paw edema in rats
Protocol: (§1) The synthesized compounds were evaluated for analgesic, anti-inflammatory, and ulcerogenic index. […] The test compounds and the standard drugs were administered in the form of a suspension (1% carboxymethyl cellulose as a vehicle) by oral route for analgesic and anti-inflammatory but for ulcerogenicity studies by intraperitoneally as suspension in 10% v/v Tween-20. Each group consisted of six animals. The animals were procured from the C. L. Baid Metha College of pharmacy, Chennai, and were maintained in colony cages at 25 ±2°C, relative humidity of 45-55%, under a 12-h light and dark cycle; they were fed standard animal feed. All the animals were acclimatized for a week before use. The Institutional Animal Ethics Committee approved the protocol adopted for the experimentation of animals.
Anti-inflammatory activity was evaluated by carrageenan-induced paw edema test in rats.[15] Diclofenac sodium 10, 20 mg/kg was administered as a standard drug for comparison. The test compounds were administered at two dose levels (10 mg/kg, 20 mg/kg). The paw volumes were measured using the mercury displacement technique with the help of a plethysmograph (Model PLYAN; Buxco, USA) immediately before and 30 min, 1, 2, and 3 h after carrageenan injection. The percent inhibition of paw edema was calculated using the following formula.
Percent inhibition I = 100 1− (a−x) / (b−y)
Where x is the mean paw volume of rats before the administration of carrageenan and test compounds or reference compound (test group), a is the mean paw volume of rats after the administration of carrageenan in the test group (drug treated), b is the mean paw volume of rats after the administration of carrageenan in the control group, y is the mean paw volume of rats before the administration of carrageenan in the control group.

[3] = system: Wistar albino mice; assay: Analgesic activity, tail-flick technique; conditions: for Percent analgesic activity: mean ± SD (n = 6); for Analgesic activity (in words): tail-flick, structure-activity comparison within the series / vs diclofenac sodium
Protocol: as §1
The analgesic activity was performed by tail-flick technique using Wistar albino mice (25-35 g) of either sex selected by the random sampling technique.[1314] Diclofenac sodium at a dose level of 10 mg/kg and 20 mg/kg was administered orally as reference drug for comparison. The test compounds at two dose levels (10, 20 mg/kg) were administered orally. The reaction time was recorded at 30 min, 1, 2, and 3 h after the treatment, and cut-off time was 10 s. The percent analgesic activity (PAA) was calculated by the following formula, where T1 is the reaction time (s) before treatment, and T2 is the reaction time (s) after treatment.

[4] = 10 mg/kg oral, 30 min after carrageenan
[5] = 10 mg/kg oral, 1 h after carrageenan
[6] = 10 mg/kg oral, 2 h after carrageenan
[7] = 10 mg/kg oral, 3 h after carrageenan
[8] = 20 mg/kg oral, 30 min after carrageenan
[9] = 20 mg/kg oral, 1 h after carrageenan
[10] = 20 mg/kg oral, 2 h after carrageenan
[11] = 20 mg/kg oral, 3 h after carrageenan
[12] = 10 mg/kg oral, 30 min after treatment
[13] = 10 mg/kg oral, 1 h after treatment
[14] = 10 mg/kg oral, 2 h after treatment
[15] = 10 mg/kg oral, 3 h after treatment
[16] = 20 mg/kg oral, 30 min after treatment
[17] = 20 mg/kg oral, 1 h after treatment
[18] = 20 mg/kg oral, 2 h after treatment
[19] = 20 mg/kg oral, 3 h after treatment
[20] = test compounds 20 mg/kg intraperitoneally, pylorus ligated on fourth day

Row | Compound | Ulcer index ([1]; diclofenac reference, dose not given) | Percent anti-inflammatory activity (percent inhibition of paw edema) [2, 4] [%] | Percent anti-inflammatory activity (percent inhibition of paw edema) [2, 5] [%] | Percent anti-inflammatory activity (percent inhibition of paw edema) [2, 6] [%] | Percent anti-inflammatory activity (percent inhibition of paw edema) [2, 7] [%] | Percent anti-inflammatory activity (percent inhibition of paw edema) [2, 8] [%] | Percent anti-inflammatory activity (percent inhibition of paw edema) [2, 9] [%] | Percent anti-inflammatory activity (percent inhibition of paw edema) [2, 10] [%] | Percent anti-inflammatory activity (percent inhibition of paw edema) [2, 11] [%] | Percent analgesic activity [3, 12] [%] | Percent analgesic activity [3, 13] [%] | Percent analgesic activity [3, 14] [%] | Percent analgesic activity [3, 15] [%] | Percent analgesic activity [3, 16] [%] | Percent analgesic activity [3, 17] [%] | Percent analgesic activity [3, 18] [%] | Percent analgesic activity [3, 19] [%] | Ulcer index [1, 20] | Anti-inflammatory activity compared to reference standard diclofenac sodium (in words) [2] | Analgesic activity (in words) [3]
1 | O=C(O)Cc1ccccc1Nc1c(Cl)cccc1Cl [Diclofenac, Diclofenac sodium, reference compound] | 1.65 ± 0.48 | 32 ± 0.69 | 38 ± 1.42 | 39 ± 1.97 | 33 ± 0.93 | 45 ± 1.65 | 52 ± 0.96 | 60 ± 1.52 | 39 ± 1.13 | 37 ± 1.69 | 43 ± 1.42 | 45 ± 0.92 | 33 ± 0.96 | 46 ± 0.95 | 55 ± 1.16 | 62 ± 1.49 | 39 ± 1.13 | – | – | –
2 | CCCC(C)=Nc1ccc(N=C2C(=O)Nc3ccc(F)cc32)cc1 [Compound N3] | – | 49 ± 1.75 | 54 ± 1.82 | 60 ± 1.35 | 43 ± 1.96 | 54 ± 1.59 | 62 ± 1.77 | 66 ± 1.24 | 52 ± 1.45 | 55 ± 1.75 | 62 ± 1.82 | 64 ± 1.35 | 46 ± 1.96 | 62 ± 1.59 | 66 ± 1.77 | 69 ± 1.24 | 52 ± 1.45 | 0.85 ± 1.28 | moderately more potent | good activity
3 | CC(=Nc1ccc(N=C2C(=O)Nc3ccc(F)cc32)cc1)c1ccccc1 [Compound N5] | – | 39 ± 1.56 | 46 ± 1.88 | 52 ± 1.65 | 32 ± 1.26 | 45 ± 1.73 | 54 ± 1.95 | 59 ± 1.36 | 42 ± 1.48 | 44 ± 1.76 | 49 ± 1.88 | 52 ± 1.55 | 32 ± 1.26 | 52 ± 1.33 | 55 ± 1.95 | 59 ± 1.36 | 42 ± 1.48 | 0.82 ± 1.32 | – | moderate decrease in activity
4 | O=C1Nc2ccc(F)cc2C1=Nc1ccc(N=Cc2ccc([N+](=O)[O-])cc2)cc1 [Compound N8] | – | 40 ± 1.65 | 44 ± 1.53 | 48 ± 1.74 | 36 ± 1.36 | 49 ± 1.46 | 52 ± 1.92 | 56 ± 1.16 | 39 ± 1.48 | 39 ± 1.75 | 46 ± 1.43 | 48 ± 1.24 | 36 ± 1.36 | 48 ± 1.46 | 51 ± 1.92 | 54 ± 1.16 | 39 ± 1.48 | 0.92 ± 1.45 | equipotent | further decrease of activity
5 | O=C1Nc2ccc(F)cc2C1=Nc1ccc(N=Cc2ccc(Cl)cc2)cc1 [Compound N9] | – | 38 ± 1.82 | 44 ± 1.32 | 48 ± 1.99 | 38 ± 1.72 | 46 ± 1.68 | 51 ± 1.46 | 57 ± 1.18 | 45 ± 1.32 | 42 ± 1.82 | 44 ± 1.72 | 48 ± 1.59 | 38 ± 1.72 | 46 ± 1.68 | 51 ± 1.46 | 57 ± 1.18 | 45 ± 1.32 | 0.75 ± 1.26 | – | decreasing activity
